Active and inactive are the calls of the source. The rule behind the calls is not given here.
What was measured:
NCI-H1373 [1] = experiment: Induction of apoptosis in human NCI-H1373 cells assessed as late apoptotic cells at 0.5 uM for 24 hrs by annexin V-PI staining based flow cytometric analysis (reference value: 16.2%); assay type: functional
NCI-H460 [2] = experiment: Downregulation of XIAP mRNA expression level in human NCI-H460 cells at 0.1 to 1 uM for 24 hrs by qRT-PCR analysis; assay type: functional, cell-based; settings: dose 0.1-1 µM
NCI-H1373 [3] = experiment: Induction of cell cycle arrest in human NCI-H1373 cells assessed as accumulation of cells at G2/M phase at 0.25 uM for 24 hrs by Click-iT EdU Alexa Fluor 647 flow cytometric assay kit analysis (reference value: 13%); assay type: functional
DV-90 [4] = experiment: Induction of cell cycle arrest in human DV-90 cells assessed as accumulation of cells at G0/G1 phase at 1 uM for 24 hrs by Click-iT EdU Alexa Fluor 647 flow cytometric assay kit analysis (reference value: 44%); assay type: functional
A549 [5] = experiment: Induction of apoptosis in human A549 cells assessed as early apoptotic cells at 2.5 uM for 24 hrs by annexin V-PI staining based flow cytometric analysis (reference value: 0.4%); assay type: functional
NCI-H1373 [6] = experiment: Downregulation of XIAP mRNA expression level in human NCI-H1373 cells at 0.1 to 1 uM for 24 hrs by qRT-PCR analysis; assay type: functional, cell-based; settings: dose 0.1-1 µM
A549 [7] = experiment: Induction of apoptosis in human A549 cells assessed as late apoptotic cells at 0.5 uM for 24 hrs by annexin V-PI staining based flow cytometric analysis (reference value: 2.3%); assay type: functional
DV-90 [8] = experiment: Downregulation of FLIP gene in human DV-90 cells after 24 hrs by microarray profiling analysis; assay type: functional, cell-based
NCI-H1373 [9] = experiment: Downregulation of c-MYC protein level in human NCI-H1373 cells 1 uM by Western blot analysis; assay type: functional, cell-based; settings: time <= 24.0 hrs, TDE = time-dependent effect
DV-90 [10] = experiment: Induction of apoptosis in human DV-90 cells assessed as early apoptotic cells at 0.5 uM for 24 hrs by annexin V-PI staining based flow cytometric analysis (reference value: 1.7%); assay type: functional
NCI-H358 [11] = experiment: Downregulation of XIAP protein expression level in human NCI-H358 cells at 1 uM for 24 hrs by […] analysis; assay type: functional, cell-based
A549 [12] = experiment: Antiproliferative activity against human A549 cells at 500 to 2500 nM in presence of TNF by cell titre glo assay; assay type: functional, cell-based; settings: dose 500-2500 nM
NCI-H1373 [13] = experiment: Downregulation of XIAP protein expression level in human NCI-H1373 cells at 1 uM for 24 hrs by […] analysis; assay type: functional, cell-based
SK-LU-1 = experiment: Downregulation of FLIP mRNA expression level in human SK-LU-1 cells at 0.1 to 1 uM for 24 hrs by qRT-PCR analysis; assay type: functional, cell-based; settings: dose 0.1-1 µM
NCI-H441 [14] = experiment: Downregulation of c-MYC mRNA expression level in human NCI-H441 cells at 0.1 to 1 uM for 24 hrs by qRT-PCR analysis; assay type: functional, cell-based; settings: dose 0.1-1 µM
NCI-H23 = experiment: Downregulation of XIAP protein expression level in human NCI-H23 cells at 1 uM for 24 hrs by […] analysis; assay type: functional, cell-based
NCI-H1373 [15] = experiment: Induction of TRAIL dependent apoptosis in human NCI-H1373 cells assessed as early apoptotic cells at 1 uM in presence of […] by annexin V-PI staining based flow cytometric analysis (reference value: 0.5%); assay type: functional
A549 [16] = experiment: Induction of cell cycle arrest in human A549 cells assessed as accumulation of cells at G0/G1 phase at 1 uM for 24 hrs by Click-iT EdU Alexa Fluor 647 flow cytometric assay kit analysis (reference value: 61%); assay type: functional
NCI-H441 [17] = experiment: Downregulation of XIAP protein expression level in human NCI-H441 cells at 1 uM for 24 hrs by […] analysis; assay type: functional, cell-based
NCI-H2347 = experiment: Downregulation of c-MYC protein expression level in human NCI-H2347 cells at 1 uM for 24 hrs by […] analysis; assay type: functional, cell-based
NCI-H1373 [18] = experiment: Induction of TRAIL dependent apoptosis in human NCI-H1373 cells assessed as PARP cleavage by Western blot analysis; assay type: functional, cell-based
NCI-H358 [19] = experiment: Downregulation of FLIP mRNA expression level in human NCI-H358 cells at 0.1 to 1 uM for 24 hrs by qRT-PCR analysis; assay type: functional, cell-based; settings: dose 0.1-1 µM
DV-90 [20] = experiment: Induction of apoptosis in human DV-90 cells assessed as early apoptotic cells at 2.5 uM for 24 hrs by annexin V-PI staining based flow cytometric analysis (reference value: 1.7%); assay type: functional
DV-90 [21] = experiment: Induction of cell cycle arrest in human DV-90 cells assessed as accumulation of cells at G2/M phase at 0.25 uM for 24 hrs by Click-iT EdU Alexa Fluor 647 flow cytometric assay kit analysis (reference value: 24%); assay type: functional
DV-90 [22] = experiment: Induction of cell cycle arrest in human DV-90 cells assessed as accumulation of cells at G0/G1 phase at 0.5 uM for 24 hrs by Click-iT EdU Alexa Fluor 647 flow cytometric assay kit analysis (reference value: 45%); assay type: functional
NCI-H460 [23] = experiment: Induction of cell cycle arrest in human NCI-H460 cells assessed as accumulation of cells at G0/G1 phase at 0.5 uM for 24 hrs by Click-iT EdU Alexa Fluor 647 flow cytometric assay kit analysis (reference value: 45%); assay type: functional
NCI-H460 [24] = experiment: Induction of cell cycle arrest in human NCI-H460 cells assessed as accumulation of cells at G0/G1 phase at 1 uM for 24 hrs by Click-iT EdU Alexa Fluor 647 flow cytometric assay kit analysis (reference value: 45%); assay type: functional
NCI-H1373 [25] = experiment: Induction of apoptosis in human NCI-H1373 cells assessed as necrotic cells at 0.5 uM for 24 hrs by annexin V-PI staining based flow cytometric analysis (reference value: 4.4%); assay type: functional
A549 [26] = experiment: Induction of apoptosis in human A549 cells assessed as late apoptotic cells at 2.5 uM for 24 hrs by annexin V-PI staining based flow cytometric analysis (reference value: 1.2%); assay type: functional
NCI-H460 [27] = experiment: Induction of apoptosis in human NCI-H460 cells assessed as early apoptotic cells at 2.5 uM for 24 hrs by annexin V-PI staining based flow cytometric analysis (reference value: 0.3%); assay type: functional
DV-90 [28] = experiment: Induction of cell cycle arrest in human DV-90 cells assessed as accumulation of cells at G0/G1 phase at 0.25 uM for 24 hrs by Click-iT EdU Alexa Fluor 647 flow cytometric assay kit analysis (reference value: 47%); assay type: functional
DV-90 [29] = experiment: Induction of apoptosis in human DV-90 cells assessed as viable cells at 0.5 uM for 48 hrs by annexin V-PI staining based flow cytometric analysis (reference value: 81.9%); settings: DV-90, 48 h
NCI-H460 [30] = experiment: Induction of apoptosis in human NCI-H460 cells assessed as necrotic cells at 2.5 uM for 24 hrs by annexin V-PI staining based flow cytometric analysis (reference value: 3.2%); assay type: functional
NCI-H460 [31] = experiment: Induction of apoptosis in human NCI-H460 cells assessed as viable cells at 0.5 uM for 24 hrs by annexin V-PI staining based flow cytometric analysis (reference value: 92.8%); assay type: functional; settings: read-out: Activity

Cc1sc2c(c1C)C(c1ccc(Cl)cc1)=N[C@@H](CC(=O)OC(C)(C)C)c1nnc(C)n1-2
Activity (NCI-H1373 [1]): 20.2%
Activity (NCI-H460 [2]): Active
Activity (NCI-H1373 [3]): 16%
Activity (DV-90 [4]): 56%
Activity (A549 [5]): 0.2%
Activity (NCI-H1373 [6]): Active
Activity (A549 [7]): 1.5%
Activity (DV-90 [8]): Active
Activity (NCI-H1373 [9]): Tde
Activity (DV-90 [10]): 2.6%
Activity (NCI-H358 [11]): Active
Activity (A549 [12]): Active
Activity (NCI-H1373 [13]): Active
Activity (SK-LU-1): Active
Activity (NCI-H441 [14]): Active
Activity (NCI-H23): Active
Activity (NCI-H1373 [15]): 6.1%
Activity (A549 [16]): 64%
Activity (NCI-H441 [17]): Active
Activity (NCI-H2347): Active
Activity (NCI-H1373 [18]): Active
Activity (NCI-H358 [19]): Active
Activity (DV-90 [20]): 1.9%
Activity (DV-90 [21]): 31%

CCNC(=O)C[C@@H]1N=C(c2ccc(Cl)cc2)c2cc(OC)ccc2-n2c(C)nnc21 [MOLIBRESIB]
Activity (DV-90 [22]): 47%
Activity (NCI-H460 [23]): 51%
Activity (NCI-H460 [24]): 52%

Cc1sc2c(c1C)C(c1ccc(Cl)cc1)=N[C@@H](CC(=O)Nc1ccc(O)cc1)c1nnc(C)n1-2 [BIRABRESIB]
Activity (NCI-H1373 [25]): 9.6%
Activity (A549 [26]): 1.5%
Activity (NCI-H460 [27]): 0.6%
Activity (DV-90 [28]): 52%
viability at 0.5 µM (DV-90 [29]): 57.6%
Activity (NCI-H460 [30]): 3.9%
viability at 0.5 µM (NCI-H460 [31]): 90.6%

From ChEMBL document CHEMBL5712891, “Inhibition of BET bromodomain-dependent XIAP and FLIP expression sensitizes KRAS-mutated NSCLC to pro-apoptotic agents” (Cell Death Dis, 2016)
